Like-named read-outs stand apart in the source and are kept apart here. Where a SMILES comes first, the peptide text is derived from it. [ ]: non-standard residue; d: D form. Ahx = NCCCCCC(=O)O
What was measured:
[1] = test system: wild-type (wt) Salmonella enterica serovar Typhimurium strain SL1344
Method: (§1) MIC values were determined by broth microdilution according to standard protocols with a few modifications ([26]). An overnight bacterial cell culture, supplemented with the appropriate antibiotic when needed, was diluted 1:100 in fresh MHB and grown to OD600 0.5. The obtained culture was diluted to ∼10^5 cfu/ml or 10^6 cfu/ml, as indicated, in non-cation-adjusted MHB. Subsequently, 190 μl bacterial solution was dispensed into a 96-well plate (Thermo Fisher Scientific) along with 10 μl of a 20x PPNA, PNA or peptide working solution. Growth was monitored by measuring the OD at 600 nm every 20 min in a Synergy H1 plate reader (Biotek) with continuous double-orbital shaking (237 cpm) at 37°C for 24 h.

[2] = test system: Salmonella gene expression; test: RNA-seq transcriptomic response; assay type: cell-based, Salmonella enterica serovar Typhimurium; conditions: 15 min; for number of differentially expressed genes: absolute fold change >2 and FDR-adjusted P-value <0.001 versus water; for logFC mgtA / logFC SL1344_0066A / logFC SL1344_2742: 5 μM RXR-constructs
Method: Bacterial overnight cultures were diluted 1:100 in fresh MHB and grown to OD600 0.5. The obtained cultures were diluted to ∼10^6 cfu/ml in non-cation-adjusted MHB. Afterward, the bacterial solution was transferred into low-binding 5 ml tubes (LABsolute) along with the 20× PNA, peptide or PPNA solution. The final concentrations were 5 μM for KFF- and RXR-PNAs, and 10 μM for Tat-PNAs. Equimolar concentrations were used for the respective peptide control conditions. As a negative control, cells were treated with the respective volume of sterile nuclease-free water, which was used as solvent for the test compounds.
A time kinetic was performed for subsequent northern blot analysis (5, 10, 15 min), in which the reaction was stopped at the indicated time points by using RNAprotect Bacteria (Qiagen). For RNA-seq analyses, adding RNAprotect Bacteria at 15 min post treatment stopped the reactions with the indicated PPNA constructs or the respective peptide. After vortexing for 5 s, the samples were incubated at room temperature for 10 min, followed by cell pelleting at 4°C and 21 100 ×g for 20 min. Pellets were directly used for RNA isolation or stored at –20°C (<2 days) until further processing. RNA was purified from bacterial pellets using isolation protocol #3, as described above (0.5 mg/ml lysozyme, miRNeasy).
DNase treatment, cDNA library preparation and sequencing was conducted at Vertis (Munich, Germany). The RNA samples were first fragmented using ultrasound (4 pulses of 30 s each at 4°C). Then, an oligonucleotide adapter was ligated to the 3′ ends of the RNA molecules. First-strand cDNA synthesis was performed using M-MLV reverse transcriptase and the 3′ adapter as primer. The first-strand cDNA was purified and the 5′ Illumina TruSeq sequencing adapter was ligated to the 3′ end of the antisense cDNA. The resulting cDNA was PCR-amplified to about 10–20 ng/μl using a high fidelity DNA polymerase. The cDNA was purified using the Agencourt AMPure XP kit (Beckman Coulter Genomics) and was analyzed by capillary electrophoresis. For Illumina NextSeq sequencing, the samples were pooled in approximately equimolar amounts. The cDNA pool was sequenced on an Illumina NextSeq 500 system using 75 bp read length.
Reads from the RNA-Seq experiments were trimmed, filtered and mapped against the S. enterica subsp. enterica serovar Typhimurium SL1344 reference genome and the three plasmids pSLT_SL1344, pCol1B9_SL1344 (other name is p2), and pRSF1010_SL1344 ([19]). BBDuk was applied to trim bases with a Phred quality score of <10, and adapters were removed simultaneously. Reads were then mapped against the reference genome using BBMap (v38.84) and then assigned genomic features, including both coding sequences and annotated sRNAs ([19],[29]) using the featureCounts method of the Subread (2.0.1) package.
All downstream analysis was performed using packages from the R/Bioconductor project. The raw read counts were imported and analyzed with edgeR (v3.30.0). Each set of PNA-peptide conjugate experiments (i.e. experiments with KFF, RXR and Tat peptide) was analyzed simultaneously. Genes with less than 14.6 counts per million (CPM) in at least three libraries were filtered. This cutoff value was calculated using 10/L, where L is the library size of the smallest sample (minimum library size) in millions.
Raw read counts were normalized by trimmed mean of M values (TMM) normalization. Differential expression analysis was conducted using edgeR ([31]). Estimation of quasi-likelihood (QL) dispersions was then run with the […] function. Then contrasts between all samples versus the water controls were created as input for the glmQLTest function.
Genes with an absolute fold change >2 and an adjusted P-value (Benjamini–Hochberg, ([32])) <0.001 were considered differentially expressed.

[3] = test system: SL1344 ΔphoP; test: MIC determination by broth microdilution; assay type: cell-based, Salmonella enterica serovar Typhimurium; conditions: Table 3; ∼10^5 cfu/ml; three biological replicates
Method: as §1
Fig. S4. Growth kinetics for MIC determ ination of 10^5 cfu/m l Salmonella wt (SL1344) and its isogenic ∆phoP m utant in the pres ence of var ying concentrations of the indicated conjugates. ( A) KFF-acpP, KFF-acpP-scram bled (scr) or KFF peptide in serial dilutions from 10 µM to 0.3 µM. ( B) RXR- acpP, RXR-acpP-scram bled (scr) or RXR peptide in seria l d ilutions f rom 10 µM to 0. 3 µM. ( C) T at-acpP, T at-acpP-scrambled (scr) or T at peptide in serial dilutions from 20 µM to 0.6 µM. D ata represent the average of three biological replicates, error bars indicate standard er ror of the m ean […]
(§2) (1 picture or pasted object on this page, not shown here)

[4] = test system: wild-type Salmonella enterica serovar Typhimurium strain LT2; test: MIC determination by broth microdilution; assay type: cell-based; conditions: Table 3; ∼10^5 cfu/ml; three biological replicates
Method: as §1
(§3) Fig. S5. Growth k inetics for MIC determ ination of 10^5 cfu/m l Salmonella wt (LT 2) and its isogenic
(§4) Pho PC m utant in the presen ce of var ying co ncentra tio n s of the in dicat ed co njugat e s. ( A) KFF-acpP,
(§5) KFF-acpP-scram bled (scr) or KFF peptide in s erial dilutions from 10 µM to 0.3 µM. ( B) RXR- acpP,
(§6) RXR- acpP-scram bled (scr) or RXR peptide in serial dilutions from 10 µM to 0.3 µ M. ( C) T at-acpP,
(§7) T at-acpP-scram bled (scr) or T at peptide in serial dilutions from 20 µM to 0.6 µM. Data represent
(§8) the average of three biological replicates, error bars indicate standard error of the m ean (SEM).
as §2

[5] = test system: LT2 PhoP^C; test: MIC determination by broth microdilution; assay type: cell-based, Salmonella enterica serovar Typhimurium; conditions: Table 3; ∼10^5 cfu/ml; three biological replicates
Method: as §1, §3, §4, §5, §6, §7, §8, §2

[6] = wild-type (wt) serovar Typhimurium strain SL1344, 24 h
[7] = 5 μM KFF-/RXR-constructs, 10 μM Tat-constructs
[8] = edgeR, versus water, 5 μM KFF-/RXR-constructs, 10 μM Tat-constructs, triplicates
[9] = edgeR, versus water, 5 μM, triplicates
[10] = Table 1, ∼10^5 cfu/ml, non-cation-adjusted MHB, 37°C, 24 h, lowest concentration with OD600 < 0.1
[11] = edgeR, versus water, 10 μM Tat-constructs, triplicates
[12] = Table 2, ∼10^6 cfu/ml, non-cation-adjusted MHB, 37°C, 24 h, performed three times
[13] = RNA-seq, 5 μM, listed as RXR-acpP-scrambled
[14] = edgeR, versus water, 10 μM Tat-constructs, triplicates, listed as PNARXRscr
[15] = edgeR, versus water, 10 μM, triplicates
[16] = edgeR, versus water, 10 μM Tat-constructs, triplicates, listed as PNATATscr

CC(=O)N[C@@H](CCCCN)C(=O)N[C@@H](Cc1ccccc1)C(=O)N[C@@H](Cc1ccccc1)C(=O)N[C@@H](CCCCN)C(=O)N[C@@H](Cc1ccccc1)C(=O)N[C@@H](Cc1ccccc1)C(=O)N[C@@H](CCCCN)C(=O)N[C@@H](Cc1ccccc1)C(=O)N[C@@H](Cc1ccccc1)C(=O)N[C@@H](CCCCN)C(=O)O [KFF, reference compound] (Ac-KFFKFFKFFK-OH; C-terminus assumed)
MIC [1, 6]: >10 µM | MIC in μM, SL1344 wt [1, 6]: >10 µM | number of differentially expressed genes [2, 7]: 32 | upregulation of AmgR transcript levels ([2]; RNA-seq, 5 μM): ~4 fold | logFC AmgR [2, 8]: 1.914 | logFC mig-14 [2, 8]: 2.101 | logFC virK [2, 8]: 2.978 | logFC yfbE [2, 9]: 1.473 | logFC yjeH [2, 9]: 1.189

RQIKIWFQNRRMKWKK [ANT-acpP]
MIC ([1]; Table 1, ∼10^5 cfu/ml, non-cation-adjusted MHB, 37°C, 24 h): 12 mg/L | MIC [1, 10]: 3.3 µM

CC(=O)N[C@@H](CCCNC(=N)N)C(=O)NCCCCCC(=O)N[C@@H](CCCNC(=N)N)C(=O)N[C@@H](CCCNC(=N)N)C(=O)NCCCCCC(=O)N[C@@H](CCCNC(=N)N)C(=O)N[C@@H](CCCNC(=N)N)C(=O)NCCCCCC(=O)N[C@@H](CCCNC(=N)N)C(=O)N[C@@H](CCCNC(=N)N)C(=O)NCCCCCC(=O)N[C@@H](CCCNC(=N)N)C(=O)NCCCCCC(=O)O [RXR, reference compound] (Ac-R[Ahx]RR[Ahx]RR[Ahx]RR[Ahx]R[Ahx]-OH; C-terminus assumed)
MIC [1, 6]: >10 µM | MIC in μM, SL1344 wt [1, 6]: >10 µM | number of differentially expressed genes [2, 7]: 26 | fold change in gene expression of phoQ ([2]; RNA-seq, 5 μM, below cutoff of >2): 1.87 fold | logFC AmgR [2, 8]: 1.916 | logFC mig-14 [2, 8]: 1.873 | logFC virK [2, 8]: 2.819 | logFC mgtA [2, 11]: 1.432 | logFC yfbE [2, 9]: 1.219

RXRRXRRXRRXRXB [RXR-acpP-scr, RXR peptide conjugated to scrambled control PNA]
MIC [1, 10]: >10 µM | MIC [1, 12]: >10 µM | MIC in μM, SL1344 ΔphoP [3]: 5 µM | MIC in μM, LT2 wt [4]: 10 µM | MIC in μM, LT2 PhoP^C [5]: >10 µM | number of downregulated sRNAs, apart from the induction of AmgR [2, 13]: three | upregulation of mig-14 [2, 13]: 1.92 fold | logFC yfiA [2, 8]: 1.5255 | logFC SL1344_0066A [2, 14]: 4.581 | logFC SL1344_2742 [2, 14]: 3.203 | logFC mgtA [2, 14]: 1.779 | logFC yihO [2, 9]: 3.308

RQIKIWFQNRRMKWKK [ANT-acpP-scr]
MIC [1, 10]: >10 µM

VELPPPVELPPPVELPPP [SAPE-acpP-scr]
MIC [1, 10]: >10 µM

CC(=O)NCC(=O)N[C@@H](CCCNC(=N)N)C(=O)N[C@@H](CCCCN)C(=O)N[C@@H](CCCCN)C(=O)N[C@@H](CCCCN)C(=O)N[C@@H](CCCNC(=N)N)C(=O)N[C@@H](CCCNC(=N)N)C(=O)N[C@@H](CCC(N)=O)C(=O)N[C@@H](CCCNC(=N)N)C(=O)N[C@@H](CCCNC(=N)N)C(=O)N[C@@H](CCCNC(=N)N)C(=O)N[C@@H](Cc1ccc(O)cc1)C(=O)N[C@@H](CCCCN)C(=O)O [Tat, reference compound] (Ac-GRKKKRRQRRRYK-OH)
MIC in μM, SL1344 wt [1, 6]: >20 µM | number of differentially expressed genes [2, 7]: 97 | maximum fold change, mgtB ([2]; RNA-seq, 10 μM): 35 fold | logFC AmgR [2, 8]: 3.7167 | logFC virK [2, 8]: 4.014 | logFC mgtA [2, 11]: 2.72 | logFC cigR [2, 15]: 3.46 | logFC phoN [2, 15]: 2.478

VRLPPPVRLPPPVRLPPP [SAP-acpP-scr]
MIC [1, 10]: >10 µM

GRKKKRRQRRRYK [Tat-acpP-scr, Tat peptide conjugated to scrambled control PNA]
MIC [1, 10]: >20 µM | MIC [1, 12]: >40 µM | MIC in μM, SL1344 wt ([1]; Table 3, ∼10^5 cfu/ml, three biological replicates): >20 µM | MIC in μM, SL1344 ΔphoP [3]: 20 µM | MIC in μM, LT2 wt [4]: >20 µM | MIC in μM, LT2 PhoP^C [5]: >20 µM | number of differentially expressed sRNAs, apart from AmgR upregulation ([2]; RNA-seq, 10 μM, listed as Tat-acpP-scrambled): 13 | logFC SL1344_0066A [2, 16]: 4.787 | logFC SL1344_2742 [2, 16]: 4.052 | logFC SL1344_1472 [2, 15]: 3.687 | logFC ccmE2 [2, 15]: 4.962 | logFC recJ ([2]; edgeR, versus water, 10 μM, triplicates, listed as PNATATscr): 2.253

CC(C)C[C@H](NC(=O)[C@H](CCC(=O)O)NC(=O)[C@@H](NC(=O)[C@@H]1CCCN1C(=O)[C@@H]1CCCN1C(=O)[C@@H]1CCCN1C(=O)[C@H](CC(C)C)NC(=O)[C@H](CCC(=O)O)NC(=O)[C@@H](NC(=O)[C@@H]1CCCN1C(=O)[C@@H]1CCCN1C(=O)[C@@H]1CCCN1C(=O)[C@H](CC(C)C)NC(=O)[C@H](CCC(=O)O)NC(=O)[C@@H](N)C(C)C)C(C)C)C(C)C)C(=O)N1CCC[C@H]1C(=O)N1CCC[C@H]1C(=O)N1CCC[C@H]1C(=O)O [SAPE, reference compound] (H-VELPPPVELPPPVELPPP-OH; N-terminus and C-terminus assumed)
MIC [1, 6]: >10 µM

CC(C)C[C@H](NC(=O)[C@H](CCCNC(=N)N)NC(=O)[C@@H](NC(=O)[C@@H]1CCCN1C(=O)[C@@H]1CCCN1C(=O)[C@@H]1CCCN1C(=O)[C@H](CC(C)C)NC(=O)[C@H](CCCNC(=N)N)NC(=O)[C@@H](NC(=O)[C@@H]1CCCN1C(=O)[C@@H]1CCCN1C(=O)[C@@H]1CCCN1C(=O)[C@H](CC(C)C)NC(=O)[C@H](CCCNC(=N)N)NC(=O)[C@@H](N)C(C)C)C(C)C)C(C)C)C(=O)N1CCC[C@H]1C(=O)N1CCC[C@H]1C(=O)N1CCC[C@H]1C(=O)O [SAP, reference compound] (H-VRLPPPVRLPPPVRLPPP-OH; N-terminus and C-terminus assumed)
MIC [1, 6]: >10 µM
